# Laboratory results from patent US20140113869A1, “Gbetagamma BINDING SITE ON THE PIK3CB GENE PRODUCT AND METHODS OF USE” (Albert Einstein College of Medicine of Yeshiva University, priority 2011, published 2014).
# Ends that are not written are not given here. * marks the point of attachment. Myristoyl = CCCCCCCCCCCCCC(=O)*
# Tests used:
# [1] = system: p85/p110β dimers activated by Gβγ; assay: In vitro activation of p85/p110β dimers by Gβγ (lipid kinase activity); type: biochemical; details: peptide 5-fold in excess of Gβγ; FIG. 5
# Protocol: FIG. 5. Percent stimulation of p85/p110β dimers incubated without or with Gβγ in the absence or presence of 5-1Old excess peptide. Pep=p110β peptide. Scram=scrambled peptide control.
# (§1) FIG. 9A-9D. Peptide inhibitors of Gβγ -mediated p110β/p85 activation are specific for p85/p110β. (9A) Myristoylated p110β peptides or SIGK peptide were preincubated with biotinylated Gβγ or 5 min, followed by addition of phage particles displaying the SIGK peptide, After a 1 h incubation at room temperature, Anti-M-13 phase monoclonal antibody was added followed by addition of Streptavidin coated Alphascreen donor beads and protein A coated Alphascreen acceptor beads. After a 2 h incubation, the Alphascreen signal was read on a Perkin Elmer Envision Multilabel Plate reader. […] Bound proteins were analyzed by western blot. […] The cells were fixed and the number of GFP punctae per cell was counted using a Nikon Eclipse 400 microscope with 60× 1.4 N.A. optics. […]
# [2] = system: Gβγ activation of Akt (pT308-Akt) in NIH3T3 cells; assay: pT308-Akt blotting in NIH3T3 cells transfected with Gβγ; type: cell-based; details: for Gβγ activation of Akt (pT308-Akt): myristoylated vs TAT-tagged vs unmodified peptide, FIG. 6B
# Protocol: FIG. 6A-6B. (6A) NIH3T3 cells were transfected without or with Gβγ and incubated with scrambled (control) or p110β peptide. pT308-Akt was measured by blotting. (6B) Cell transfected as above were incubated with myristoylated peptide, TAT-tagged peptide, or unmodified peptide. pT308-Akt was measured by blotting.
# (§2) To test the possibility that small molecules targeting the p110β-Gβγ interface could be used as therapeutics, a peptide was designed derived from the Gβγ-binding loop in p110β. having the sequence […] (SEQ ID NO:6) a scrambled version of the peptide serves as a negative control. […] The test whether the peptide could be efficacious in vivo, we created a cell permeable myristylated version of the peptide. The peptide blocked activation of Akt in cells transfected with Gβγ (FIG. 6A); the peptide's inhibitory activity required its entry into the cells, since both myristoylated and TAT-tagged peptide inhibited Gβγ activation of Akt, whereas unlabeled peptide had no effect (FIG. 6B). The myristoylated peptide blocked the formation of colonies in soft agar (FIG. 7A) and the formation of foci (FIG. 7B), both measures of transformation, in NIH3T3 cells transfected with p85/p110β.
# [3] = system: NIH3T3 cells transfected with p85/p110β; assay: Colony formation in soft agar; type: cell-based; details: 30 μM peptide; FIG. 7A
# Protocol: (§3) FIG. 7A-7B. (7A). NIH3T3 cells were transfected without or with p85/p110β and incubated without or with 30 μM p110β peptide or scrambled control peptide. Colony formation in soft agar by cells transfected and treated with peptide as above. (7B). Foci were measured after 2 weeks.
# as §2
# [4] = system: NIH3T3 cells transfected with p85/p110β; assay: Foci formation; type: cell-based; details: 30 μM peptide; foci measured after 2 weeks; FIG. 7B
# Protocol: as §3, §2
# [5] = system: NIH3T3 cells transfected with p110β/p85; assay: Wound healing (wound closure) migration assay; type: cell-based; details: 30 μM peptide; wound closure after 24h; FIG. 8
# Protocol: FIG. 8. NIH3T3 cells were transfected without or with p85/p110β. Confluent monolayers were scratched with a pipette tip, and wound closure after 24h was measured in the absence or presence of 30 μM p110β peptide or scrambled control peptide
# as §2
# p110β = p110β expression in peptide-treated transfected cells; type: cell-based; details: FIG. 7
# Protocol: as §3
# Gβγ = assay: Alphascreen competition with phage-displayed SIGK peptide for binding to biotinylated Gβγ; details: FIG. 9A
# Protocol: as §1
# Class IB PI3K p101/p110γ = assay: Gβγ-dependent activation of p101/p110γ, pT308-Akt western blot in HEK293E cells; type: cell-based; details: FIG. 9C
# Protocol: as §1
# [6] = system: recombinant adenylyl cyclase; assay: Synergistic activation of adenylyl cyclase by Gβγ and Gαs in Sf9 cell membranes; type: biochemical; details: 30 μM peptide; 20 nM Gsα, 20 nM Gβγ; FIG. 9D
# p110β binding to Rab5 = target: T1, p110β binding to Rab5 (Homo sapiens, UniProt P42338); assay: p110β binding to immobilized GST-Rab5 (pull-down from HEK293T lysates); details: FIG. 9E
# T1 construct: expressed in transfected cells; host or cells: HEK293T (p85α and p110β)
# Protocol: as §1
# [7] = system: HEK293A cells expressing GFP-LC3; assay: p110β-dependent induction of autophagy, GFP-LC3 punctae in HEK293A cells; type: cell-based; details: PBS containing 100 nM rapamycin, 2 h; FIG. 9F
# Protocol: as §1
# [8] = system: PC3 prostate cancer cells; assay: PC-3 cell proliferation, MTS assay; type: cell-based; details: 30 μM peptide; FIG. 10A
# Protocol: (§4) FIG. 10A-10C. Inhibition of prostate cancer cell proliferation and chemotaxis: (A) Proliferation of PC-3 cells was measured by the MTS assay in the absence or presence of 30 μM myristoylated p110β-derived peptide or scrambled peptide. (B) Proliferation assays were performed on two PTEN-null endometrial cancer cell lines (AN3CA and RL95-2) and one PTEN positive endometrial cell line (KLE) grown in the absence or presence of myristoylated p110β-derived peptide or scrambled peptide. (C) PC-3 cells chemotaxis toward 10% […] in the absence or presence of 20 μM p110β-derived peptide or scrambled peptide was measured in Boyden chambers.
# (§5) Finally, the peptide was evaluated for effects on the growth of PC3 prostate cancer cells, which are known to require p110β for growth. […] Importantly, published studies have shown that kinase-dead p110β can rescue cell growth in cell lines where proliferation is inhibited by p110β knockout. Since currently available p110β inhibitors target the active site of p110β and act by inhibiting its kinase activity, they would not be expected to suppress the growth of cells that depend on p110β for growth. In contrast, the p110β peptide described here inhibits p110β by a distinct mechanism, and is likely to be more efficacious at suppressing the growth of p110β-dependent prostate cancer cells than active site inhibitors.
# PC3 cells = assay: PC-3 chemotaxis in Boyden chambers; type: cell-based; details: 20 μM peptide; toward 10% PBS; FIG. 10C
# Protocol: as §4, §5
# T1 sequence (P42338 whole entry): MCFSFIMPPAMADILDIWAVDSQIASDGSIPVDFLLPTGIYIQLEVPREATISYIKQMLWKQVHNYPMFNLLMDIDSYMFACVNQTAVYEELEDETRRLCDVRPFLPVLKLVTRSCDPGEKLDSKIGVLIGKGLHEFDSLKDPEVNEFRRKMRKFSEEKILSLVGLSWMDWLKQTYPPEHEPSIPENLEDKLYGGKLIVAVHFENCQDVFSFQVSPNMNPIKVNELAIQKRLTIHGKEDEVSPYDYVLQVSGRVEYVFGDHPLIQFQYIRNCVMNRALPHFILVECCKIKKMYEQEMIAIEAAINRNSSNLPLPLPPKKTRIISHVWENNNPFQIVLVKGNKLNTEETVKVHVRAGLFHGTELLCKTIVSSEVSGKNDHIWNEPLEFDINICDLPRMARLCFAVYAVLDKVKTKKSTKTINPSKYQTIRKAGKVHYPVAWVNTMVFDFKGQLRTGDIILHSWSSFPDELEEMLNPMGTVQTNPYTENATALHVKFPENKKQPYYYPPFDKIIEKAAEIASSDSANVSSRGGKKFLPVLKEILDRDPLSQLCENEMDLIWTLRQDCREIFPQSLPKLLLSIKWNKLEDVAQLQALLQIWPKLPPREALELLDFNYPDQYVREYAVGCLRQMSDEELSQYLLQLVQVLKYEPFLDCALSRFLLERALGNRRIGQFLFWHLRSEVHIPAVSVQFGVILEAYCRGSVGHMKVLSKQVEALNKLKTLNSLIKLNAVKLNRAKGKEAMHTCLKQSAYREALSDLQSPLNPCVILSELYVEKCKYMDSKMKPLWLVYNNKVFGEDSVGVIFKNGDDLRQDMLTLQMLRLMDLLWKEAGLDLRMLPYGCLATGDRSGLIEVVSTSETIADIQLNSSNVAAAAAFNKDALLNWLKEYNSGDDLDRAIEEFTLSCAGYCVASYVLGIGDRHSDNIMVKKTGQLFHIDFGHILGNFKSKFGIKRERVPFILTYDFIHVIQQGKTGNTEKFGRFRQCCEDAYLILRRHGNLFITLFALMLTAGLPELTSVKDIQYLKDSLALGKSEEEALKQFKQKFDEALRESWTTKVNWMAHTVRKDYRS
activation of p110β by Gβγ [1],competition with the binding to Gβγ of SIGK peptide (Gβγ),p110β binding to Rab5 (p110β binding to Rab5),Substance,Gβγ activation of Akt (pT308-Akt) [2],"activation of Akt in cells transfected with Gβγ (pT308-Akt) ([2]; NIH3T3 cells, FIG. 6A)",formation of colonies in soft agar [3],formation of foci [4],enhanced migration in a wound healing assay [5],p110β expression (p110β),Gβγ-dependent activation of the Class IB PI3K p101/p110γ (Class IB PI3K p101/p110γ),synergistic activation of adenylyl cyclase by Gβγ and Gαs [6],p110β-dependent induction of autophagy [7],PC3 cells number (growth) [8],PC3 cells chemotaxis toward serum (PC3 cells)
markedly reduces,,,KAAEIASSDSANVSSRGGKKFLPV (SEQ ID NO:6) [peptide],no effect,,,,,,,,,,
,did not compete,no effect,myristoylated peptide: cell permeable myristylated version of the p110β peptide KAAEIASSDSANVSSRGGKKFLPV (SEQ ID NO:6) (Myristoyl-KAAEIASSDSANVSSRGGKKFLPV),inhibited,blocked,blocked,blocked,blocked,did not reduce,no effect,no effect,no effect,caused a decrease,inhibited
